{"source": "patent US20040058380A1", "about": "(priority 2002, published 2004)", "key": {"[1]": {"assay": "not given", "remark": "listed apart in the source"}, "[2]": {"assay": "not given", "remark": "listed apart in the source"}, "[3]": {"assay": "not given", "remark": "listed apart in the source"}}, "note": "Like-named read-outs stand apart in the source and are kept apart here.", "data": [{"compound": "NaCl", "values": [{"measurement": "potentiometric selectivity coefficient of DPA sensor (j: interference)", "result": 20}]}, {"compound": "CaCO3", "values": [{"measurement": "potentiometric selectivity coefficient of DPA sensor (j: interference)", "result": 2.22}]}, {"compound": "K2HPO4", "values": [{"measurement": "potentiometric selectivity coefficient of DPA sensor (j: interference)", "result": 4.44}]}, {"compound": "N[C@@H](Cc1ccc(O)cc1)C(=O)O", "note": "[L-tyrosine]", "values": [{"measurement": "potentiometric selectivity coefficient of DPA sensor (j: interference)", "result": "2.22 × 10^−3"}]}, {"compound": "NC(Cc1c[nH]c2ccccc12)C(=O)O", "note": "(racemic) [DL-tryptophan]", "values": [{"measurement": "potentiometric selectivity coefficient of DPA sensor (j: interference)", "result": "2.22 × 10^−3"}]}, {"compound": "O=C(O)C[C@H](NC(=O)OCc1ccccc1)C(=O)O", "note": "[N-CBZ-L-Asp]", "values": [{"measurement": "L-Asp sensor output", "setting": "[1]; 0.095 mM", "result": 37, "unit": "mV"}, {"measurement": "L-Asp sensor output", "setting": "[1]; 0.20 mM", "result": 49, "unit": "mV"}, {"measurement": "L-Asp sensor output", "setting": "[1]; 0.33 mM", "result": 59, "unit": "mV"}, {"measurement": "L-Asp sensor output", "setting": "[1]; 0.50 mM", "result": 65, "unit": "mV"}, {"measurement": "L-Asp sensor output", "setting": "[1]; 0.64 mM", "result": 72, "unit": "mV"}, {"measurement": "L-Asp sensor output", "setting": "[1]; 0.79 mM", "result": 78, "unit": "mV"}, {"measurement": "L-Asp sensor output", "setting": "[1]; 0.93 mM", "result": 84, "unit": "mV"}, {"measurement": "L-Asp sensor output", "setting": "[1]; 1.49 mM", "result": 114, "unit": "mV"}, {"measurement": "L-Asp sensor output", "setting": "[1]; 2.79 mM", "result": 172, "unit": "mV"}, {"measurement": "L-Asp sensor output", "setting": "[1]; 4.09 mM", "result": 205, "unit": "mV"}, {"measurement": "L-Asp sensor output", "setting": "[1]; 5.32 mM", "result": 222, "unit": "mV"}, {"measurement": "potentiometric selectivity coefficient for D-isomer in the presence of L-isomer", "setting": "[2]", "result": "4×10^−3"}]}, {"compound": "COC(=O)C=C(C)OP(=O)(OC)OC", "note": "[phosdrin]", "values": [{"measurement": "potentiometric selectivity coefficient of MPA sensor to interferences", "setting": "[3]", "result": "3.33 × 10^−4"}]}, {"compound": "KCl", "values": [{"measurement": "potentiometric selectivity coefficient of DPA sensor (j: interference)", "result": 44.4}]}, {"compound": "O=C(O)C[C@@H](O)C(=O)O", "note": "[D(+)-malic acid]", "values": [{"measurement": "potentiometric selectivity coefficient of DPA sensor (j: interference)", "result": 35.56}]}, {"compound": "O=C(O)C[C@@H](NC(=O)OCc1ccccc1)C(=O)O", "note": "[N-CBZ-D-Asp]", "values": [{"measurement": "potentiometric selectivity coefficient for L-isomer in the presence of D-isomer", "setting": "[1]", "result": "9×10^−3"}, {"measurement": "potentiometric selectivity coefficient for N-CBZ-L-Asp with respect to N-CBZ-D-Asp", "setting": "[1]; pH 6.8", "result": 0.08}, {"measurement": "D-Asp sensor output", "setting": "[2]; 0.20 mM", "result": 47, "unit": "Mv"}, {"measurement": "D-Asp sensor output", "setting": "[2]; 0.33 mM", "result": 55, "unit": "Mv"}, {"measurement": "D-Asp sensor output", "setting": "[2]; 0.50 mM", "result": 62, "unit": "Mv"}, {"measurement": "D-Asp sensor output", "setting": "[2]; 0.64 mM", "result": 68, "unit": "Mv"}, {"measurement": "D-Asp sensor output", "setting": "[2]; 0.79 mM", "result": 71, "unit": "Mv"}, {"measurement": "D-Asp sensor output", "setting": "[2]; 0.93 mM", "result": 76, "unit": "Mv"}, {"measurement": "D-Asp sensor output", "setting": "[2]; 1.49 mM", "result": 100, "unit": "Mv"}, {"measurement": "D-Asp sensor output", "setting": "[2]; 2.79 mM", "result": 158, "unit": "Mv"}, {"measurement": "D-Asp sensor output", "setting": "[2]; 4.09 mM", "result": 192, "unit": "Mv"}, {"measurement": "D-Asp sensor output", "setting": "[2]; 5.32 mM", "result": 203, "unit": "Mv"}]}, {"compound": "O=P(O)(O)O", "note": "[H3PO4]", "values": [{"measurement": "potentiometric selectivity coefficient of MPA sensor to interferences", "setting": "[3]", "result": "7.5×10^−3"}]}, {"compound": "O=C(O)c1cccc(C(=O)O)n1", "note": "[DPA, pyridine-2,6-dicarboxylic acid]", "values": [{"measurement": "DPA adsorbed in the sensor concentrated versus control", "setting": "pH 7.2", "result": 23, "unit": "times"}]}, {"compound": "Cc1cc2nc3c(=O)[nH]c(=O)nc-3n(C[C@H](O)[C@H](O)[C@H](O)CO)c2cc1C", "note": "[riboflavin]", "values": [{"measurement": "potentiometric selectivity coefficient of DPA sensor (j: interference)", "result": 7.78}]}]}
